Measured values from patent US10865216B2, “Tricyclic Gyrase inhibitors” (MERCK SHARP & DOHME CORP., priority 2012, dated 2020).

Key:
Format in all cases: cell-based
[1] = test system: S. aureus ATCC 13709 + mouse serum; experiment: MIC, SA + serum (S. aureus ATCC 13709, MHCA + mouse serum); conditions: Table 14; R2 is a 5 membered heterocycle
S. aureus ATCC 13709 = experiment: MIC, S. aureus ATCC 13709; conditions: for MIC Sa: S. aureus, Alamar Blue read after overnight incubation at 35° C.; for Sa MIC: Table 10, Sa = S. aureus
E. coli ATCC 25922 = experiment: MIC, E. coli ATCC 25922; conditions: for EC8 MIC: Table 14, R2 is a 5 membered heterocycle, EC8 not defined; for MIC Ec: E. coli, Alamar Blue read after overnight incubation at 35° C.; for Ec MIC: Table 10, Ec = E. coli, strain not stated
P. aeruginosa ATCC 15692 = experiment: MIC, P. aeruginosa ATCC 15692; conditions: for PA MIC: Table 17, comparative, new species of R2; for Pa MIC: Table 10, Pa = P. aeruginosa
S. pneumoniae ATCC 51916 = experiment: MIC, S. pneumoniae ATCC 51916; conditions: for Spn52 MIC: Table 17, comparative, Spn52 not defined; for Spn MIC: Table 10, Spn = S. pneumoniae
[2] = test system: B. thailandensis ATCC E264; experiment: microbe, parasite or virus in culture
[3] = test system: F. tularensis holarctica LVS; experiment: microbe, parasite or virus in culture; conditions: Table 10; Ft = F. tularensis, strain not stated
[4] = test system: K. pneumoniae ATCC 700603; experiment: MIC, K. pneumoniae ATCC 700603; conditions: Table 10; Kpn = K. pneumoniae
A. baumannii ATCC 19606 = experiment: MIC, A. baumannii ATCC 19606; conditions: Table 10; Ab = A. baumannii, strain not stated
Y. pestis CO92 pgm- = conditions: Table 10
[5] = Table 14, R2 is a 5 membered heterocycle
[6] = Table 17, comparative, new species of R2

Compound | SA+ serum MIC [1] [µg/mL] | SA MIC (S. aureus ATCC 13709; [5]) [µg/mL] | EC8 MIC (E. coli ATCC 25922) [µg/mL] | PA MIC (P. aeruginosa ATCC 15692) [µg/mL] | SA MIC (S. aureus ATCC 13709; [6]) [µg/mL] | Spn52 MIC (S. pneumoniae ATCC 51916) [µg/mL] | Pa MIC (P. aeruginosa ATCC 15692) [µg/mL] | Bt MIC [2] [µg/mL] | Ft MIC [3] [µg/mL] | MIC Sa (S. aureus ATCC 13709) [µg/mL] | Sa MIC (S. aureus ATCC 13709) [µg/mL] | Kpn MIC [4] [µg/mL] | Spn MIC (S. pneumoniae ATCC 51916) [µg/mL] | Ab MIC (A. baumannii ATCC 19606) [µg/mL] | MIC Ec (E. coli ATCC 25922) [µg/mL] | Ec MIC (E. coli ATCC 25922) [µg/mL] | Yp MIC (Y. pestis CO92 pgm-) [µg/mL]
CNc1cc(F)cc2c1[nH]c1nc(Sc3nc4ccccc4s3)nc(N3C[C@H]4C[C@@H]3C[C@H]4N)c12 | 4 | 1 | 16 | – | – | – | – | – | – | – | – | – | – | – | – | – | –
CNc1cc(F)cc2c1[nH]c1nc(Sc3nnc(C)s3)nc(N3C[C@H]4C[C@@H]3C[C@H]4N)c12 | ≤ 0.5 | ≤ 0.5 | ≤ 0.5 | – | – | – | – | – | – | – | – | – | – | – | – | – | –
CNc1cc(F)cc2c1[nH]c1nc(Sc3nc(C(=O)OC)cs3)nc(N3CC4CC(N)C4C3)c12 (stereo not shown) | 2 | ≤ 0.5 | ≤ 0.5 | – | – | – | – | – | – | – | – | – | – | – | – | – | –
CNc1cc(F)cc2c1[nH]c1nc(Sc3nc(C(=O)O)cs3)nc(N3CC4CC(N)C4C3)c12 (stereo not shown) | 2 | ≤ 0.5 | > 16 | – | – | – | – | – | – | – | – | – | – | – | – | – | –
CNc1cc(F)cc2c1[nH]c1nc(Sc3nc(Br)cs3)nc(N3CC4CC(N)C4C3)c12 (stereo not shown) | ≤ 0.5 | ≤ 0.5 | ≤ 0.5 | – | – | – | – | – | – | – | – | – | – | – | – | – | –
CNc1cc(F)cc2c1[nH]c1nc(Oc3cnc(C)nc3)nc(C3C[C@H]4CCN[C@H]4C3)c12 (stereo partly shown) | – | – | – | 2 | < 0.03 | < 0.03 | – | – | – | – | – | – | – | – | – | – | –
CNc1cc(F)cc2c1[nH]c1nc(Oc3cnc(C)nc3)nc(N3C[C@H]4C[C@@H]3C[C@H]4N)c12 | – | – | – | 1 | ≤ 0.016 | ≤ 0.016 | – | – | – | – | – | – | – | – | – | – | –
CNc1cc(F)cc2c1[nH]c1nc(Oc3cnc4ccnn4c3)nc(N3C[C@H]4C[C@@H]3C[C@H]4N)c12 | – | – | – | 0.5 | ≤ 0.016 | ≤ 0.001 | – | – | – | – | – | – | – | – | – | – | –
CNc1cc(F)cc2c1[nH]c1nc(Oc3cnc4cccnc4c3)nc(N3CC4C(N)C4C3)c12 (stereo not shown) [Compound 4.035] | – | – | – | – | – | – | 4 | ≤0.5 | 1 | ≤0.5 | ≤0.5 | 2 | ≤0.5 | ≤0.5 | ≤0.5 | ≤0.5 | ≤0.5
CNc1cc(F)cc2c1[nH]c1nc(Oc3cnc4cccnc4c3)nc(N3CC4(CCC4N)C3)c12 (stereo not shown) [Compound 4.045] | – | – | – | – | – | – | 4 | 1 | 2 | ≤0.5 | ≤0.5 | 8 | ≤0.5 | ≤0.5 | ≤0.5 | ≤0.5 | ≤0.5
CNc1cc(F)cc2c1[nH]c1nc(Oc3cnc(C)nc3)nc(N3CCC4(CC4N)C3)c12 (stereo not shown) [Compound 4.066] | – | – | – | – | – | – | 2 | ≤0.5 | 1 | ≤0.5 | ≤0.5 | 2 | ≤0.5 | ≤0.5 | ≤0.5 | ≤0.5 | ≤0.5
CNc1cc(F)cc2c1[nH]c1nc(Oc3cnc(C)nc3)nc(N3CC(N)C4(CC4)C3)c12 (stereo not shown) [Compound 4.069] | – | – | – | – | – | – | 4 | ≤0.5 | 2 | ≤0.5 | ≤0.5 | 2 | ≤0.5 | ≤0.5 | ≤0.5 | ≤0.5 | ≤0.5
CNc1cc(F)cc2c1[nH]c1nc(Oc3cnc(C)nc3)nc(N3CC4C(N)C4C3)c12 (stereo not shown) [Compound 4.073] | – | – | – | – | – | – | 4 | ≤0.5 | 1 | ≤0.5 | ≤0.5 | 2 | ≤0.5 | ≤0.5 | ≤0.5 | ≤0.5 | ≤0.5
